Structures can show the parent of a compound that is named as a salt.
How the values were obtained:
[1] = Determination of brain/plasma AUC ratio after tail vein injection; type: in vivo; conditions: mouse, intravenous, 0.0875 mg/mouse, mice, 0.10 mL of 0.875 mg/mL, AUC0-∞ from median plasma and brain concentrations
Procedure: For each test compound, forty five mice were injected via the tail vein with 0.10 mL of a 0.875 mg/mL solution of test compound dissolved in a formulation of 5% Cremophor, 5% Ethanol, and 90% D5W, or a formulation variation thereof. Five mice at each collection time point of approximately 0.05, 0.25, 0.50, 1.00, 2.00, 4.00, 8.00, 12.0 and 24.0 hours post dose were euthanized by halothane inhalation. Approximately 0.30 to 1.00 mL of blood from each animal was collected via cardiac puncture into tubes containing EDTA. Immediately after exsanguination, the whole brain from each animal was removed. The plasma and whole brain samples were frozen (˜20° C.) separately until analysis. Plasma and brain samples were allowed to thaw at room temperature on the day of sample analysis. Prior to homogenization, the brains were weighed and three volumes of sterile water were added. Plasma and homogenized brain samples were extracted using a protein precipitation and filtration method. Briefly, 0.20 mL acetonitrile was added to 0.10 mL of sample in a Varian Captiva 20 μm filtration plate. A vacuum was applied to the plate and filtrates were collected. Filtrates were injected onto LC-MS/MS ABI2000 QTrap LC-MS/MS equipped with a reverse phase liquid chromatography inlet. Peak areas of the m/z product ions of the test compounds were measured against the peak are of the m/z internal standard production. The range of quantitation for the assay was between 1.00 and 1000 ng/mL for both analytes.
Pharmacokinetic parameters (PK) for the test compounds were estimated on median plasma and brain concentrations using non-compartmental analysis in WinNonlin (Pharsight Corp., Mountain View, Calif.). The validation of this software program is reported in MPI-REP-PA-03.00. All values below the quantitation limit (BQL) of 1.00 ng/mL were excluded from PK analysis. The areas under the concentration-time curve (AUC0-∞) were calculated using a linear/log trapezoidal method.

T-47D = experiment: Caspase cascade activation (caspase activity ratio and potency), fluorogenic N-(Ac-DEVD)-N'-ethoxycarbonyl-R110 substrate; type: cell-based, Human
Procedure: Human breast cancer cell lines T-47D and DLD-1 were grown according to media component mixtures designated by American Type Culture Collection+10% FCS (Invitrogen Corporation), in a 5% CO2−95% humidity incubator at 37° C. T-47D and DLD-1 cells were maintained at a cell density between 50 and 80% confluency at a cell density of 0.1 to 0.6×10^6 cells/mL. Cells were harvested at 600×g and resuspended at 0.65×10^6 cells/mL into appropriate media+10% FCS. An aliquot of 22.5 μL of cells was added to a well of a 384-well microtiter plate containing 2.5 μL of a 10% DMSO in RPMI-1640 media solution containing 0.16 to 100 μM of (2-chloro-quinazolin-4-yl)-(4-methoxy-phenyl)-methyl-amine or other test compound (0.016 to 10 μM final). An aliquot of 22.5 μL of cells was added to a well of a 384-well microtiter plate containing 2.5 μL of a 10% DMSO in RPMI-1640 media solution without test compound as the control sample. […] […] The samples were mixed by agitation and incubated at room temperature. Using a fluorescent plate reader (Model SPECTRAfluor Plus, Tecan), an initial reading (T=0) was made approximately 1-2 min after addition of the substrate solution, employing excitation at 485 nm and emission at 530 nm, to determine the background fluorescence of the control sample. After the 3 h incubation, the samples were read for fluorescence as above (T=3 h).
The Relative Fluorescence Unit values (RFU) were used to calculate the sample readings as follows: RFU(T=3h)−Control RFU(T=0)=Net RFU(T=3h)
The activity of caspase cascade activation was determined by the ratio of the net RFU value for (2-chloro-quinazolin-4-yl)-(4-methoxy-phenyl)-methyl-amine or other test compounds to that of control samples. The EC50 (nM) was determined by a sigmoidal dose-response calculation (Prism 3.0, GraphPad Software Inc.).

Row | Kp [1] | SMILES | Caspase activity Ratio (net RFU of test compound to control) (T-47D; T-47D (24 hr)) | Caspase activity Ratio (net RFU of test compound to control) (T-47D; T-47D (48 hr))
1 | 6.44 | CNc1nc(N(C)c2ccc(OC)cc2)c2ccccc2n1 [Example 39, (2-Methylamino-quinazolin-4-yl)-(4-methoxy-phenyl)-methyl-amine] | 8.2 | –
2 | 14.1 | CNc1ccc(N(C)c2nc(C)nc3ccccc23)cc1 [Example 43, (2-Methyl-quinazolin-4-yl)-(4-methylamino-phenyl)-methylamine] | 3.4 | –
3 | 10 | CNc1nc(N(C)c2ccc(OC)nc2)c2ccccc2n1 [Example 40, (2-Methylamino-quinazolin-4-yl)-(6-methoxy-pyridin-3-yl)-methyl-amine] | 10 | –
4 | 23.3 | COc1ccc(N(C)c2nc(N(C)C(C)=O)nc3ccccc23)cc1 [Example 51, (4-Methoxy-phenyl)-(2-N-methylacetamido-quinazolin-4-yl)-methylamine] | 4.0 | –
5 | 9.16 | COc1ccc(N(C)c2ccnc3ccccc23)cc1 [Example 17, (4-Methoxy-phenyl)-methyl-(quinolin-4-yl)-amine] | 7.2 | 12.5
6 | 6.14 | COc1ccc(N(C)c2nc(OC)nc3ccccc23)cc1 [Example 11, (2-methoxy-quinazolin-4-yl)-(4-methoxyphenyl)-methylamine] | – | –
7 | – | CN(c1ccc(O)cc1)c1nc(Cl)nc2ccccc12 [Example 58, (2-Chloro-quinazolin-4-yl)-(4-hydroxyphenyl)-methylamine] | – | 12.5
8 | – | COc1ccc(N(C)c2nc(C)nc3ccccc23)c(F)c1 [Example 34, (2-Fluoro-4-methoxy-phenyl)-(2-methyl-quinazolin-4-yl)-methyl-amine] | 6.9 | –
9 | – | CCN(c1ccc(OC)cc1)c1nc(Cl)nc2ccccc12 [Example 8, (2-Chloro-quinazolin-4-yl)-ethyl-(4-methoxy-phenyl)-amine] | – | 6.1
10 | – | COc1ccc(N(C)c2nc(CF)nc3ccccc23)cc1 [Example 12, (2-Fluoromethyl-quinazolin-4-yl)-(4-methoxy-phenyl)-methyl-amine] | – | 9.0
11 | – | COc1ccc(N(C)c2nc(Cl)nc3ccc(C)cc23)cc1 [Example 13, (2-Chloro-6-methyl-quinazolin-4-yl)-(4-methoxy-phenyl)-methyl-amine] | – | 4.9
12 | – | COc1ccc(OC)c(N(C)c2nc(Cl)nc3ccccc23)c1 [Example 56, (2-Chloro-quinazolin-4-yl)-(2,5-dimethoxy-phenyl)-methyl-amine] | 8.6 | 14.6
13 | – | COc1ccc(N(C)c2nc(Cl)nc3ccccc23)c(OC)c1 [Example 9, (2-Chloro-quinazolin-4-yl)-(2,4-dimethoxy-phenyl)-methyl-amine] | – | 12.4
14 | 16.1 | Cc1nc(N(C)c2ccc(N(C)C)cc2)c2ccccc2n1 [Example 35, (4-Dimethylamino-phenyl)-(2-methyl-quinazolin-4-yl)-methyl-amine] | 8.5 | –
15 | – | CCc1ccc(N(C)c2nc(C)nc3ccccc23)cc1 [Example 28, (4-Ethyl-phenyl)-(2-methyl-quinazolin-4-yl)-methyl-amine] | 6.3 | –
16 | – | CN(c1ccc(Cl)cc1)c1nc(Cl)nc2ccccc12 [Example 3, (2-Chloro-quinazolin-4-yl)-(4-chloro-phenyl)-methyl-amine] | 8.1 | –

Row | SMILES | Kp [1] | Caspase activity Ratio (net RFU of test compound to control) (T-47D; T-47D (24 hr)) | Caspase activity Ratio (net RFU of test compound to control) (T-47D; T-47D (48 hr))
17 | COc1ccc(N(C)c2nc(C)nc3ccccc23)cc1 [Example 21, (4-Methoxy-phenyl)-methyl-(2-methyl-quinazolin-4-yl)-amine hydrochloride] | 19.7 | 9.0 | 7.4
18 | COc1ccc(N(C)c2nc(C)nc3ccccc23)cn1 [Example 33, (2-Methyl-quinazolin-4-yl)-(6-methoxy-pyridin-3-yl)-methyl-amine] | 5.82 | – | –
19 | COc1ccc(N(C)c2nc(Cl)nc3ccccc23)cc1 [Example 1, (2-Chloro-quinazolin-4-yl)-(4-methoxy-phenyl)-methyl-amine] | 30 | 8.7 | –

— patent publication US8258145B2, “Method of treating brain cancer” (Myrexis, Inc., priority 2005, dated 2012)
